Test results reported in US10617695B2, “Ophthalmic compositions containing alcaftadine” (Vistakon Pharmaceuticals, LLC, priority 2006, dated 2020).
Entries after “also recorded” stand apart in the source; their conditions may differ. Marks after values point to notes of the source that are not given here.

How the values were obtained:
[1] = Chemical stability of alcaftadine solution in ethylene oxide sterilized LDPE bottles; type: physicochemical
Description: Both non-sterilized Rexam and Bunder Glas bottles were sterilized using ethylene oxide. Stability studies were initiated and ethylene oxide levels determined to be <1 ppm (under ambient conditions) using a water extraction test method (ANSI/AAMI/ISO: 10993-7) by AppTec (Marietta, Ga.).
The 2.5 mg/ml alcaftadine solution was used in this study.
The chemical stability results for alcaftadine stored in ethylene oxide sterilized Rexam and Bunder Glas bottles are summarized in Table 4.

[2] = Chemical stability of alcaftadine solution in non-sterilized or gamma irradiated LDPE bottles and glass vials (HPLC); type: physicochemical
From the text: The existence of the N-oxide structures as the primary oxidative degradation peak was confirmed as having the same HPLC relative retention time as a synthetically produced N-oxide structures and also confirmed using mass spectroscopy.
To investigate the effects of the gamma irradiation process used to sterilize the LDPE bottles, the chemical stability of alcaftadine was studied using different lots of bottles, either gamma irradiated or non-sterilized.
The following materials were used in this study.
2.5 mg/ml alfactadine solution
Non-sterilized 5 ml LDPE bottles (DUPONT 20-6064) from Bunder Glas GmbH (Germany)
Non-sterilized 5 ml LDPE bottles (DUPONT 20-6064) from Rexam (France)
Sterilized (gamma irradiated at 25 kGy) LDPE bottles (DUPONT 20-6064) from Bunder Glas GmbH
Scintillation vials—20 ml clear glass with Teflon coated cap Millex GV syringe filter unit
Chemical stability results for alcaftadine solution stored in either non-sterilized bottles (Rexam or Bunder Glas) or gamma-irradiated bottles (Bunder Glas) are summarized in Table 2. All samples were assayed by HPLC after 6 and 14 days of storage at 50° C. Light exposure was not controlled during storage. The solution was stored in either Rexam bottles (without sterilization), Bunder Glas bottles (sterilized with y Irradiation or without sterilization) and in glass vials.

[3] = system: murine model of allergic conjunctivitis; assay: Vascular leak (Evans Blue Dye Extravasation) in murine model of allergic conjunctivitis, early phase; type: in vivo, mice; conditions: alcaftadine 2.5 mg/ml, 5 μL topical at 1 and 2 hours pre-challenge; p<0.05
Description: Alcaftadine ophthalmic solution was evaluated to determine if topical treatment could reduce early phase and late phase allergic inflammation in a murine model of allergic conjunctivitis. Evans Blue Dye Leakage was used to assess the impact on vascular permeability during the early phase inflammatory response Conjunctiva was taken at 24 hours, stained, and assessed for presence of neutrophil and eosinophil infiltration to evaluate late phase anti-inflammatory activity.
All mice were sensitized with short ragweed (SRW) in aluminum hydroxide via intraperitoneal administration (Day 0, 7, and 14) and eye drop instillation (Day 8 and 15). On Day 20, mice were again sensitized with eye drops of SRW.
On Day 27, two topical administrations of the clinical dose of alcaftadine 2.5 mg/ml or vehicle were instilled at 1 and 2 hours pre-challenge. Alcaftadine and vehicle were administered topically at a 5 μL saturating dose as treatment arms based on a randomization code. […]
Vascular leak was determined by means of Evans Blue Dye Extravasation following allergen challenge for N=6 animals except the alcaftadine treatment arm, where N=4 animals were sacrificed and tested (two animals died during the procedure). […] The numbers of eosinophils and neutrophils were determined both by light microscopy of Giemsa or H&E stained sections or by immunohistochemistry using cell specific monoclonal antibodies. […]

[4] = system: guinea pigs systemically sensitized to rabbit skin squames and topically challenged with rabbit allergens; assay: Anti-allergic activity against acute-phase allergic conjunctivitis (edema and erythema) in sensitized guinea pigs; type: in vivo, guinea pig
Description: The effect of alcaftadine against acute-phase reactions of allergic conjunctivitis (edema and erythema) was compared to the effect of other known anti-allergens in guinea pigs that were systemically sensitized to rabbit skin squames and topically challenged 17 days later with rabbit allergens.
Anesthetized male albino guinea pigs (Dunkin-Hartley) weighing about 230 to 250 g were injected intramuscularly at the left quadriceps with 50 μl of purified rabbit allergens. The rabbit allergens consisted of Al(OH)3-adsorbed rabbit squames (Halab, Brussels, Belgium), which had been homogenized and washed clean of preservative (0.5% (V/V) phenol) with sterile physiologic saline.
Alcaftadine was […] administered to each eye in dosages ranging from 0.005 mg/kg to 1.0 mg/kg at 24 hours and 1 hour before challenge. Other test compounds included oxatomide, ketotifen, astemizole, cetirizine, loratadine and terfenadine, administered at dosages of 0.1 mg/kg and 1.0 mg/kg.
At day 17 post sensitization the left eye was challenged by instilling 25 μl of 100% normal rabbit serum. At the same time as the allergen challenge, the right eye was instilled with 25 μl of 1.5 mg/ml histamine dihydrochloride (98%, Sigma) dissolved in deionised, Millipore-filtered water.
Thirty minutes after challenge, edema and erythema were assessed in the tarsal and bulbar conjunctiva of both eyes and scored as absent (0), weak (1), moderate (2), severe (3), or very severe (4) by a trained technician.

[5] = Chemical stability of alcaftadine solution in non-sterilized or gamma irradiated LDPE bottles and glass vials (HPLC); type: physicochemical; conditions: Glass Vials; 5° C.; 6 days
[6] = Bunder Glas bottles, Ethylene Oxide, 5 days at 50° C.
[7] = Bunder Glas bottles, Ethylene Oxide, 14 days at 50° C.
[8] = Rexam bottles, Ethylene Oxide, 5 days at 50° C.
[9] = Rexam bottles, Ethylene Oxide, 14 days at 50° C.
[10] = Bunder Glas bottles, Y Irradiation (gamma, 25 kGy), 50° C., 6 days
[11] = Bunder Glas bottles, Y Irradiation (gamma, 25 kGy), 50° C., 14 days
[12] = Bunder Glas bottles, no sterilization, 50° C., 6 days
[13] = Bunder Glas bottles, no sterilization, 50° C., 14 days
[14] = Rexam bottles, no sterilization, 50° C., 6 days
[15] = Rexam bottles, no sterilization, 50° C., 14 days

- N-oxide levels in ethylene oxide sterilized Bunder Glas bottles versus gamma irradiated bottles ([1]; 14 days of storage at 50° C. under ambient light conditions): significantly lower N-oxide levels
- Alcaftadine [1, 6]: 2.46 mg/mL
- N-Oxide [1, 6]: 0.052%
- Alcaftadine [1, 7]: 2.48 mg/mL
- N-Oxide [1, 7]: 0.074%
- Alcaftadine ([1]; Glass Vials, 5 days at 50° C.): 2.48 mg/mL
- N-Oxide ([1]; Glass Vials, 5 days at 50° C.): 0.022%
- Alcaftadine ([1]; Glass Vials, 14 days at 50° C.): 2.51 mg/mL
- N-Oxide ([1]; Glass Vials, 14 days at 50° C.): 0.028%
- Alcaftadine [1, 8]: 2.50 mg/mL
- N-Oxide [1, 8]: 0.018%
- Alcaftadine [1, 9]: 2.58 mg/mL
- N-Oxide [1, 9]: 0.025%
- Alcaftadine [2, 10]: 2.41 mg/mL
- Oxide [2, 10]: 0.199%
- Alcaftadine [2, 11]: 2.39 mg/mL
- Oxide [2, 11]: 0.202%
- Alcaftadine [2, 12]: 2.48 mg/mL
- Oxide [2, 12]: 0.018%
- Alcaftadine [2, 13]: 2.48 mg/mL
- Oxide [2, 13]: 0.042%
- Oxide ([2]; Glass Vials, 50° C., 6 days): 0.024%
- Alcaftadine ([2]; Glass Vials, 50° C., 6 days, sample showed significant evaporation): 2.57* mg/mL
- Alcaftadine ([2]; Initial Solution): 2.47 mg/mL
- Oxide ([2]; Initial Solution): 0.02%
- Alcaftadine [2, 14]: 2.46 mg/mL
- Oxide [2, 14]: 0.015%
- Alcaftadine [2, 15]: 2.48 mg/mL
- Oxide [2, 15]: 0.033%
- susceptibility to oxidation ([2]; primary degradation product N-oxide): susceptible to oxidation
- Alcaftadine [5]: 2.52 mg/mL
- Oxide [5]: 0.008%
SMILES: CN1CCC(=C2c3ccccc3CCn3c(C=O)cnc32)CC1 [Alcaftadine, 6,11-dihydro-11-(1-methyl-4-piperidinylidene)-5H-imidazo[2,1-b][3]benzazepine-3-carboxaldehyde]
- N-oxide formation in gamma irradiated Bunder Glas bottles compared with glass vials and non-sterilized Rexam and Bunder Glas bottles ([2]; 50° C.): significantly increased levels of N-oxide formation
- vascular leak compared to vehicle [3]: successfully preventing vascular leakage; also recorded: did significantly inhibit vascular leak
- dose from which acute allergic symptoms were significantly alleviated ([4]; dosed 24 hours and 1 hour before challenge, edema and erythema scored 30 minutes after challenge): 0.1 mg/kg
- potency compared with astemizole, cetirizine and loratadine ([4]; on an equivalent mg/kg basis): significantly more potent
- potency compared with oxatomide, ketotifen and terfenadine ([4]; on an equivalent mg/kg basis): more potent
